Patent US8987258B2 (priority 2008, dated 2015)

Target: T1, SIRT1 (Homo sapiens, UniProt Q96EB6)
T1 sequence (Q96EB6 1-747): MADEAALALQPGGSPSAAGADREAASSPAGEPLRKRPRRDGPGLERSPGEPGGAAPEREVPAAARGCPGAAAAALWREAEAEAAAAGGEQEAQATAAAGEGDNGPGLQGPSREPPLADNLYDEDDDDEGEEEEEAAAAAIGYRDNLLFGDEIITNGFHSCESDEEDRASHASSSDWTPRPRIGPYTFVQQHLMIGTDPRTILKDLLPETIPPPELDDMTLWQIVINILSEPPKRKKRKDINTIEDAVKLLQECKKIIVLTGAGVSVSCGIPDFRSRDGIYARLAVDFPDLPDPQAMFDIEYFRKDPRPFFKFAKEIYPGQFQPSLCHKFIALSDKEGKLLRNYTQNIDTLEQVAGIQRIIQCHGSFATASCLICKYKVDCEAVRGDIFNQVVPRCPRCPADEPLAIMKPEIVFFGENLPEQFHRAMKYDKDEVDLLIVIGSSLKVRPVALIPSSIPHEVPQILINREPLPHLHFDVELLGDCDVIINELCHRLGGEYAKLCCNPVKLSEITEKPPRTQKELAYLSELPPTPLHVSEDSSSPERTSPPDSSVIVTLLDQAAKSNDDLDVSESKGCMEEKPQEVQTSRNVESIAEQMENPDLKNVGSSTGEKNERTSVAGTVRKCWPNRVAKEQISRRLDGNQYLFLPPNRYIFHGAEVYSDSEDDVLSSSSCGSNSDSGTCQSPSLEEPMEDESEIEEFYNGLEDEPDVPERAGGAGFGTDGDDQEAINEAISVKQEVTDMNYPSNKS
Assay: Mass spectrometry based SIRT1 deacetylase activation assay
Format: biochemical
Conditions: for EC1.5 μM: 0.5 μM peptide substrate, 120 μM βNAD+, 10 nM SIRT1, 25 min, 25° C.; for Emax: 25 min, mass spectrometry assay, read-out: % Fold Act. (percent maximum fold activation)
Description: A mass spectrometry based assay was used to identify modulators of SIRT1 activity. The mass spectrometry based assay utilizes a peptide having 20 amino acid residues as follows: Ac-EE-K(biotin)-GQSTSSHSK(Ac)NleSTEG-K(5TMR)-EE-NH2 (SEQ ID NO: 1) wherein K(Ac) is an acetylated lysine residue and Nle is a norleucine. The peptide is labeled with the fluorophore 5TMR (excitation 540 nm/emission 580 nm) at the C-terminus. The sequence of the peptide substrate is based on p53 with several modifications. In addition, the methionine residue naturally present in the sequence was replaced with the norleucine because the methionine may be susceptible to oxidation during synthesis and purification.
The mass spectrometry assay is conducted as follows: 0.5 μM peptide substrate and 120 μM βNAD^+ is incubated with 10 nM SIRT1 for 25 minutes at 25° C. in a reaction buffer (50 mM Tris-acetate pH 8, 137 mM NaCl, 2.7 mM KCl, 1 mM MgCl2, 5 mM DTT, 0.05% BSA). Test compounds may be added to the reaction as described above. […] After the 25 minute incubation with SIRT1, 10 μL of 10% formic acid is added to stop the reaction. Reactions are sealed and frozen for later mass spec analysis. Determination of the mass of the substrate peptide allows for precise determination of the degree of acetylation (i.e. starting material) as compared to deacetylated peptide (product).
A control for inhibition of sirtuin activity is conducted by adding 1 μL of 500 mM nicotinamide as a negative control at the start of the reaction (e.g., permits determination of maximum sirtuin inhibition). A control for activation of sirtuin activity is conducted using 10 nM of sirtuin protein, with 1 μL of DMSO in place of compound, to determine the amount of deacetylation of the substrate at a given timepoint within the linear range of the assay. This timepoint is the same as that used for test compounds and, within the linear range, the endpoint represents a change in velocity.
For the above assay, SIRT1 protein was expressed and purified as follows. […] The protein was expressed by induction with 1 mM IPTG as an N-terminal His-tag fusion protein at 18° C. overnight and harvested at 30,000×g. Cells were lysed with lysozyme in lysis buffer (50 mM Tris-HCl, 2 mM Tris[2-carboxyethyl]phosphine (TCEP), 10 μM ZnCl2, 200 mM NaCl) and further treated with sonication for 10 min for complete lysis. The protein was purified over a Ni-NTA column (Amersham) and fractions containing pure protein were pooled, concentrated and run over a sizing column (Sephadex S200 26/60 global). The peak containing soluble protein was collected and run on an Ion-exchange column (MonoQ). Gradient elution (200 mM-500 mM NaCl) yielded pure protein. This protein was concentrated and dialyzed against dialysis buffer (20 mM Tris-HCl, 2 mM TCEP) overnight. The protein was aliquoted and frozen at −80° C. until further use.

| SMILES | EC1.5 μM | Emax [%] |
| --- | --- | --- |
| Cc1cnc(NC(=O)c2cccc3c(=O)cc(-c4cccnc4)oc23)s1 [Compound 239] | C (EC1.5>25 μM) | < 200 |
| O=C(Nc1cccc2c(=O)cc(-c3ccccc3OC(F)(F)F)oc12)c1cnccn1 [Compound 234] | A (EC1-5<1.0) | > 200 |
| Cc1cnc(NC(=O)c2cccc3c(=O)cc(-c4cccc(C(F)(F)F)c4)oc23)s1 [Compound 235] | C (EC1.5>25 μM) | < 200 |
| Cc1cnc(NC(=O)c2cccc3c(=O)cc(-c4ccncc4)oc23)s1 [Compound 248, N-(5-methylthiazol-2-yl)-4-oxo-2-(pyridin-4-yl)-4H-chromene-8-carboxamide] | C (EC1.5>25 μM) | < 200 |
| O=C(Nc1cccc2c(=O)cc(-c3ccccc3)oc12)c1cscn1 [Compound 200] | C (EC1.5>25 μM) | < 200 |
| Cc1cnc(NC(=O)c2cccc3c(=O)cc(-c4ccccc4C(F)(F)F)oc23)s1 [Compound 276] | C (EC1.5>25 μM) | < 200 |
| O=C(Nc1cccc2c(=O)cc(-c3cc(F)ccc3F)oc12)c1cscn1 [Compound 293] | C (EC1.5>25 μM) | < 200 |
| O=C(Nc1cccc2c(=O)cc(-c3cccc(F)c3Cl)oc12)c1cnccn1 [Compound 298] | B (EC1.5 1-25 μM) | < 200 |
| O=C(Nc1cccc2c(=O)cc(-c3ccccc3C(F)(F)F)oc12)c1cncnc1 [Compound 260] | C (EC1.5>25 μM) | < 200 |
| CS(=O)(=O)c1cccc(-c2cc(=O)c3cccc(C(=O)Nc4ccccn4)c3o2)c1 [Compound 221] | C (EC1.5>25 μM) | < 200 |
| O=C(Nc1cccc2c(=O)cc(-c3cccc(C(F)(F)F)c3)oc12)c1cccc(OC[C@@H](O)CO)n1 [Compound 244] | B (EC1.5 1-25 μM) | > 200 |
| O=C(Nc1cccc2c(=O)cc(-c3ccc(OC(F)(F)F)cc3)oc12)c1cnccn1 [Compound 233] | C (EC1.5>25 μM) | < 200 |
| O=C(Nc1cccc2c(=O)cc(-c3cccc(C(F)(F)F)c3)oc12)c1cccnc1OC[C@@H](O)CO [Compound 246] | B (EC1.5 1-25 μM) | < 200 |
| O=C(Nc1cccc2c(=O)cc(-c3ccccc3C(F)(F)F)oc12)c1ccncc1 [Compound 258] | B (EC1.5 1-25 μM) | > 200 |
| O=C(Nc1cccc2c(=O)cc(-c3c(F)cccc3Cl)oc12)c1cscn1 [Compound 297] | B (EC1.5 1-25 μM) | > 200 |
| Cc1cnc(NC(=O)c2cccc3c(=O)cc(-c4cccc(Br)c4)oc23)s1 [Compound 237] |  | < 200 |
| O=C(Nc1cccc2c(=O)cc(-c3cccnc3)oc12)c1cnccn1 [Compound 217] | C (EC1.5>25 μM) | < 200 |
| O=C(Nc1cccc2c(=O)cc(-c3ccccc3C(F)(F)F)oc12)c1cccc(OCC(O)CO)n1 (stereo not shown) [Compound 318] | A (EC1-5<1.0) | > 200 |
| O=C(Nc1cccc2c(=O)cc(-c3cccnc3C(F)(F)F)oc12)c1cscn1 [Compound 307] | A (EC1-5<1.0) | > 200 |
| O=C(Nc1cccc2c(=O)cc(-c3cccnc3)oc12)c1cscn1 [Compound 215, N-(4-oxo-2-(pyridin-3-yl)-4H-chromen-8-yl)thiazole-4-carboxamide] | C (EC1.5>25 μM) | < 200 |

| SMILES | EC1.5 μM | Emax [%] |
| --- | --- | --- |
| O=C(Nc1nccs1)c1cccc2c(=O)cc(-c3cccc(C(F)(F)F)c3)oc12 [Compound 206] | C (EC1.5>25 μM) | < 200 |
| CS(=O)(=O)c1cccc(-c2cc(=O)c3cccc(NC(=O)c4cnccn4)c3o2)c1 [Compound 219] | C (EC1.5>25 μM) | < 200 |
| O=C(Nc1cccc2c(=O)cc(-c3ccccc3C(F)(F)F)oc12)c1cccnc1 [Compound 262] | B (EC1.5 1-25 μM) | < 200 |
| O=C(Nc1cccc2c(=O)cc(-c3cccc(N4CCOCC4)c3)oc12)c1cscn1 [Compound 212] | B (EC1.5 1-25 μM) | > 200 |
| O=C(Nc1cccc2c(=O)cc(-c3ccccc3C(F)(F)F)oc12)c1cscn1 [Compound 227, N-(4-oxo-2-(2-(trifluoromethyl)phenyl)-4H-chromen-8-yl)thiazole-4-carboxamide] | A (EC1-5<1.0) | > 200 |
| O=C(Nc1cccc2c(=O)cc(-c3cccc(F)c3F)oc12)c1cnccn1 [Compound 288] | B (EC1.5 1-25 μM) | < 200 |
| O=C(Nc1cccc2c(=O)cc(-c3ccccc3Cl)oc12)c1cccc(N2CCOCC2)n1 [Compound 324] | A (EC1-5<1.0) | > 200 |
| O=C(Nc1cccc2c(=O)cc(-c3ccccc3C(F)(F)F)oc12)c1cccc(N2CCCC2)c1 [Compound 312] | B (EC1.5 1-25 μM) | > 200 |
| O=C(Nc1cccc2c(=O)cc(-c3cccc(C(F)(F)F)c3)oc12)c1ccnc(OC[C@@H](O)CO)c1 [Compound 245] | C (EC1.5>25 μM) | < 200 |
| O=C(Nc1cccc2c(=O)cc(-c3ccccc3Cl)oc12)c1cccc(N2CCOCC2)c1 [Compound 336] | B (EC1.5 1-25 μM) | > 200 |
| Cc1cnc(NC(=O)c2cccc3c(=O)cc(-c4ccccc4S(C)(=O)=O)oc23)s1 [Compound 304] | C (EC1.5>25 μM) | < 200 |
| O=C(Nc1cccc2c(=O)cc(-c3ccccc3C(F)F)oc12)c1cscn1 [Compound 283] | A (EC1-5<1.0) | > 200 |
| Cc1cnc(NC(=O)c2cccc3c(=O)cc(-c4ccccc4F)oc23)s1 [Compound 271] | C (EC1.5>25 μM) | < 200 |
| O=C(Nc1cccc2c(=O)cc(-c3cc(F)ccc3Cl)oc12)c1cscn1 [Compound 301] | C (EC1.5>25 μM) | < 200 |
| O=C(Nc1cccc2c(=O)cc(-c3c(Cl)cccc3Cl)oc12)c1cnccn1 [Compound 302] | B (EC1.5 1-25 μM) | > 200 |
| O=C(Nc1cccc2c(=O)cc(-c3ccccc3C(F)F)oc12)c1cnccn1 [Compound 282] | A (EC1-5<1.0) | > 200 |
| O=C(Nc1cccc2c(=O)cc(-c3cccc(OC(F)(F)F)c3)oc12)c1cnccn1 [Compound 203] | B (EC1.5 1-25 μM) | < 200 |
| O=C1CCC(C(=O)Nc2cccc3c(=O)cc(-c4ccccc4C(F)(F)F)oc23)N1 (stereo not shown) [Compound 313, 5-oxo-N-(4-oxo-2-(2-(trifluoromethyl)phenyl)-4H-chromen-8-yl)pyrrolidine-2-carboxamide] | B (EC1.5 1-25 μM) | > 200 |
| O=C(Nc1cccc2c(=O)cc(-c3ccccc3C(F)(F)F)oc12)c1cccc(CN2CCCC2)n1 [Compound 320] | A (EC1-5<1.0) | > 200 |
| O=C(Nc1cccc2c(=O)cc(-c3ccccc3OC(F)F)oc12)c1cnccn1 [Compound 263] | C (EC1.5>25 μM) | < 200 |
